{
  "source": "PubChem BioAssay (NCI)",
  "assay_in_all_cases": "inhibition of tumour cell growth, NCI panel, 48 h",
  "key": {"SNB-19 CNS": {"test_system": "SNB-19 CNS"}, "NCI-H226 lung": {"test_system": "NCI-H226 lung"}, "MCF7 breast": {"test_system": "MCF7 breast"}, "HT29 colon": {"test_system": "HT29 colon"}, "UACC-62 melanoma": {"test_system": "UACC-62 melanoma"}, "IGROV1 ovarian": {"test_system": "IGROV1 ovarian"}, "SR leukemia": {"test_system": "SR leukemia"}, "SW-620 colon": {"test_system": "SW-620 colon"}, "OVCAR-5 ovarian": {"test_system": "OVCAR-5 ovarian"}, "ACHN renal": {"test_system": "ACHN renal"}, "A549 NSCLC": {"test_system": "A549 NSCLC"}, "MALME-3M melanoma": {"test_system": "MALME-3M melanoma"}, "SF-539 CNS": {"test_system": "SF-539 CNS"}, "UACC-257 melanoma": {"test_system": "UACC-257 melanoma"}, "LOX IMVI melanoma": {"test_system": "LOX IMVI melanoma"}, "K-562 leukemia": {"test_system": "K-562 leukemia"}, "UO-31 renal": {"test_system": "UO-31 renal"}, "SF-268 CNS": {"test_system": "SF-268 CNS"}, "OVCAR-3 ovarian": {"test_system": "OVCAR-3 ovarian"}, "NCI-H522 lung": {"test_system": "NCI-H522 lung"}, "SNB-75 CNS": {"test_system": "SNB-75 CNS"}, "CAKI-1 renal": {"test_system": "CAKI-1 renal"}, "BT-549 breast": {"test_system": "BT-549 breast"}, "SF-295 CNS": {"test_system": "SF-295 CNS"}, "DU-145 prostate": {"test_system": "DU-145 prostate"}, "HCC-2998 colon": {"test_system": "HCC-2998 colon"}, "U251 CNS": {"test_system": "U251 CNS"}, "EKVX NSCLC": {"test_system": "EKVX NSCLC"}, "KM12 colon": {"test_system": "KM12 colon"}},
  "note": "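96-well plates; 48 h exposure; 5 concentrations. Endpoints by linear interpolation between flanking doses. Not reached: highest tested concentration assigned. The concentration for 50% growth inhibition is given as GI50. TGI is the concentration that stops growth completely.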",
  "data": [
    {"smiles": "CC(C)=CCc1c(O)c(CC=C(C)C)c2c(c1O)C(=O)C1=C[C@@H]3C[C@H]4C(C)(C)O[C@@](C/C=C(\\C)C(=O)O)(C3=O)[C@@]14O2", "values": [
      {"measurement": "GI50", "setting": "SNB-19 CNS", "result": 30.2, "unit": "µM"},
      {"measurement": "TGI", "setting": "SNB-19 CNS", "result": 94.4, "unit": "µM"},
      {"measurement": "GI50", "setting": "NCI-H226 lung", "result": 25.4, "unit": "µM"},
      {"measurement": "TGI", "setting": "NCI-H226 lung", "result": 58.9, "unit": "µM"},
      {"measurement": "GI50", "setting": "MCF7 breast", "result": 19, "unit": "µM"},
      {"measurement": "TGI", "setting": "MCF7 breast", "result": "> 100", "unit": "µM"},
      {"measurement": "GI50", "setting": "HT29 colon", "result": 23.7, "unit": "µM"},
      {"measurement": "TGI", "setting": "HT29 colon", "result": 64.3, "unit": "µM"},
      {"measurement": "GI50", "setting": "UACC-62 melanoma", "result": 19.9, "unit": "µM"},
      {"measurement": "TGI", "setting": "UACC-62 melanoma", "result": 50.8, "unit": "µM"},
      {"measurement": "GI50", "setting": "IGROV1 ovarian", "result": 26.7, "unit": "µM"},
      {"measurement": "TGI", "setting": "IGROV1 ovarian", "result": 83.2, "unit": "µM"},
      {"measurement": "GI50", "setting": "SR leukemia", "result": 16.1, "unit": "µM"},
      {"measurement": "TGI", "setting": "SR leukemia", "result": "> 100", "unit": "µM"},
      {"measurement": "GI50", "setting": "SW-620 colon", "result": 19.9, "unit": "µM"},
      {"measurement": "TGI", "setting": "SW-620 colon", "result": 50.4, "unit": "µM"},
      {"measurement": "GI50", "setting": "OVCAR-5 ovarian", "result": 32.9, "unit": "µM"},
      {"measurement": "TGI", "setting": "OVCAR-5 ovarian", "result": 98.1, "unit": "µM"},
      {"measurement": "GI50", "setting": "ACHN renal", "result": 29.7, "unit": "µM"},
      {"measurement": "TGI", "setting": "ACHN renal", "result": "> 100", "unit": "µM"},
      {"measurement": "GI50", "setting": "A549 NSCLC", "result": 38.4, "unit": "µM"},
      {"measurement": "TGI", "setting": "A549 NSCLC", "result": "> 100", "unit": "µM"},
      {"measurement": "GI50", "setting": "MALME-3M melanoma", "result": 18, "unit": "µM"},
      {"measurement": "TGI", "setting": "MALME-3M melanoma", "result": 50.9, "unit": "µM"},
      {"measurement": "GI50", "setting": "SF-539 CNS", "result": 17.3, "unit": "µM"},
      {"measurement": "TGI", "setting": "SF-539 CNS", "result": 41.2, "unit": "µM"},
      {"measurement": "GI50", "setting": "UACC-257 melanoma", "result": 21.6, "unit": "µM"},
      {"measurement": "TGI", "setting": "UACC-257 melanoma", "result": 55, "unit": "µM"},
      {"measurement": "GI50", "setting": "LOX IMVI melanoma", "result": 14.4, "unit": "µM"},
      {"measurement": "TGI", "setting": "LOX IMVI melanoma", "result": 28.6, "unit": "µM"},
      {"measurement": "GI50", "setting": "K-562 leukemia", "result": 24, "unit": "µM"},
      {"measurement": "TGI", "setting": "K-562 leukemia", "result": "> 100", "unit": "µM"},
      {"measurement": "GI50", "setting": "UO-31 renal", "result": 14.3, "unit": "µM"},
      {"measurement": "TGI", "setting": "UO-31 renal", "result": 31.8, "unit": "µM"},
      {"measurement": "GI50", "setting": "SF-268 CNS", "result": 26.6, "unit": "µM"},
      {"measurement": "TGI", "setting": "SF-268 CNS", "result": "> 100", "unit": "µM"},
      {"measurement": "GI50", "setting": "OVCAR-3 ovarian", "result": 18.1, "unit": "µM"},
      {"measurement": "TGI", "setting": "OVCAR-3 ovarian", "result": 34.2, "unit": "µM"},
      {"measurement": "GI50", "setting": "NCI-H522 lung", "result": 15.9, "unit": "µM"},
      {"measurement": "TGI", "setting": "NCI-H522 lung", "result": 36, "unit": "µM"},
      {"measurement": "GI50", "setting": "SNB-75 CNS", "result": 31.9, "unit": "µM"},
      {"measurement": "TGI", "setting": "SNB-75 CNS", "result": "> 100", "unit": "µM"},
      {"measurement": "GI50", "setting": "CAKI-1 renal", "result": 29.4, "unit": "µM"},
      {"measurement": "TGI", "setting": "CAKI-1 renal", "result": "> 100", "unit": "µM"},
      {"measurement": "GI50", "setting": "BT-549 breast", "result": 16.8, "unit": "µM"},
      {"measurement": "TGI", "setting": "BT-549 breast", "result": 33.8, "unit": "µM"},
      {"measurement": "GI50", "setting": "SF-295 CNS", "result": 33.9, "unit": "µM"},
      {"measurement": "TGI", "setting": "SF-295 CNS", "result": "> 100", "unit": "µM"},
      {"measurement": "GI50", "setting": "DU-145 prostate", "result": 25.9, "unit": "µM"},
      {"measurement": "TGI", "setting": "DU-145 prostate", "result": 68, "unit": "µM"},
      {"measurement": "GI50", "setting": "HCC-2998 colon", "result": 19.6, "unit": "µM"},
      {"measurement": "TGI", "setting": "HCC-2998 colon", "result": 40.1, "unit": "µM"},
      {"measurement": "GI50", "setting": "U251 CNS", "result": 17.4, "unit": "µM"},
      {"measurement": "TGI", "setting": "U251 CNS", "result": 38.5, "unit": "µM"},
      {"measurement": "GI50", "setting": "EKVX NSCLC", "result": 27.5, "unit": "µM"},
      {"measurement": "TGI", "setting": "EKVX NSCLC", "result": "> 100", "unit": "µM"},
      {"measurement": "GI50", "setting": "KM12 colon", "result": 21.2, "unit": "µM"}
    ]}
  ]
}
